Results as given in US20130211215A1, “HYPEROSMOTIC PREPARATIONS COMPRISING 5-AMINOLEVULINIC ACID OR DERIVATIVE AS PHOTOSENSITIZING AGENT” (Photocure ASA, priority 2010, published 2013).

Key:
[1] = Systemic uptake from the colon assessed as PpIX skin fluorescence after colonic instillation; format: in vivo, hairless mice (C3.Cg/TifBomTac-hr)
Protocol: Experiments were performed in hairless mice weighing 20 g (C3.Cg/TifBomTac-hr). […] The animals were fasted for 24 hours but with free access to water before the experiment. Prior to administration of the test preparation, the mice were anaesthetised with Hypnorm/Dormicum. This was also repeated every second hour.
When ALA hexylester is administered sytemically, it induces PpIX formation in the entire body. The systemic uptake of ALA hexylester after colonic administration was therefore assessed as skin fluorescence. To assess the PpIX skin fluorescence, the mice were photographed using a fluorescence camera (Medeikonos PDD/PDT, Medeikonos AB, Gothenburg, Sweden) at excitation wavelengths of 365 and 405 nm and 2 sec illumination time. Each photo was calibrated to a fluorescence standard (Uranyl Standard, J&M, Analytische Mess and Regeltecknik, GmbH, Hamburg, Germany) and adjusted for background fluorescence. The mean amount of PpIX fluorescence in each image was calculated by means of image analyzer-software (MatLab 7.2.0.232, Math-Works, Natick, Mass., USA).
All dilutions were performed in 0.9% NaCl (150 mM=300 mOsmol/l). For the colon instillation, a 1000 μl micropipette with a plastic tip was used. […] In all experiments, instillation lasted until the experiment was finished (approx. 5 hours).
Increasing doses (8 to 40 mM ALA hexylester) were given by anal administration to mice and the resulting skin fluorescence measured as described. […] The resulting systemic fraction was proportional to the concentration of ALA hexylester in the enema.
The ALA hexylester was dissolved as the corresponding hydrochloride salt. 20 mM ALA hexylester constitutes an osmolarity of approx. 40 mOsmol/l.
(§1) The purpose of this study was to investigate the effect of adding sorbitol to an enema formulation containing 20 mM ALA hexylester in an attempt to reduce the systemic uptake of the photosensitizer. It was discovered in pilot experiments that sorbitol at concentrations above 300 mM gave diarrhea. Therefore, the effect of 300 mM sorbitol in 0.9% NaCl (600 mOsmol/l) was investigated by comparing the skin fluorescence in two mice that were given 20 mM ALA hexylester (in 0.9% NaCl) with the skin fluorescence in two mice that had received 20 mM ALA hexylester and 300 mM sorbitol. The osmolarities of these solutions are outlined below. • 1. 20 mM ALA hexylester in 0.9% NaCl: (40+300) mOsmol/l=340 mOsmol/l • 2. 20 mM ALA hexylester and 300 mM sorbitol in 0.9% NaCl: (40+300+300) mOsmol/l=640 mOsmol/l (hypertonic preparation)

[2] = Osmolarity of preparations; format: physicochemical; settings: calculated from concentrations
Text: An osmometer may be used to determine the osmolarity of a solution. There are several different techniques employed in osmometry; vapour pressure depression osmometers determine the concentration of osmotically active particles that reduce the vapour pressure of a solution; membrane osmometers measure the osmotic pressure of a solution separated from pure solvent by a semi-permeable membrane; and freezing point depression osmometers are used to determine the osmotic strength of a solution (since osmotically active compounds depress the freezing point of a solution). Osmolarity may be measured using a vapour pressure osmometer such as that supplied by ELITech Group (Vapro 5600 vapour pressure osmometer). Where reference is made herein to specific values for osmolarity, these values may be determined using such apparatus operated under standard temperature and pressure conditions.
The osmolarity of small molecules can normally be calculated from their concentration in solution. For example, in the case of simple salts such as NaCl: 0.9% NaCl=150 mM. NaCl is fully dissociated in water and both Na^+ and Cl^− contribute to the osmolarity (i.e. each mole of NaCl becomes two osmoles in solution, one mole of Na^+ and one mole of Cl^−). The osmolarity is therefore 150 mM×2=300 mOsmol/l. […]

[3] = Absorption from the colon after enema (pharmacokinetic studies with 14C-labelled agents, HAL enema studies); format: in vivo; settings: enema preparations
Text: Such high systemic uptake of photosensitizer may constitute a safety issue for the patient due to the high dosage of agent circulating within the bloodstream.

[4] = system: pre-malignant conditions in the colon; settings: enema, 200 mg in 500 ml or 1000 ml phosphate buffered saline; Mayinger et al. 2008; cited from earlier work
[5] = design: species or system mice; settings: C3.Cg/TifBomTac-hr (hairless), mouse, in vivo
Protocol: as §1

SMILES	skin fluorescence ([1]; 8 mM ALA hexylester (concentration used clinically), colonic instillation 0.6 ml in 0.9% NaCl, FIG. 1)	skin fluorescence ([1]; 20 mM ALA hexyl ester, colonic administration)	relationship between concentration in the enema and resulting skin fluorescence ([1]; 8 to 40 mM, anal administration, FIG. 1)	concentration of ALA hexylester appearing saturating for skin fluorescence ([1]; colonic instillation 0.6 ml in 0.9% NaCl, FIG. 1) [µM]	osmolarity [2]	absorption of the active photosensitizing agent in the colon [3]	more polyps detected by PDD than with white light endoscopic imaging [4] [%]	sorbitol concentration that gave diarrhea [5]
CCCCCCOC(=O)CCC(=O)CN [ALA hexylester, 5-aminolevulinic acid hexyl ester]	no skin fluorescence	reasonable levels of skin sensitivity	clear dose-response relationship	≥ 30000	approx. 40 mOsmol/l	absorption of a significant amount	28	–
OC[C@@H](O)[C@@H](O)[C@H](O)[C@@H](O)CO [sorbitol]	–	–	–	–	–	–	–	above 300 mM
